Tested on: HeLa cells
Experiment: Cytosolic entry of NF-labelled peptides by flow cytometry
Assay type: cell-based
Details: 5 μM, 2 h, inversion of configuration of Arg-9 or Nal-4 of peptide 4

Substance	fold higher cytosolic entry activity relative to peptide 4 [fold]
cyclo(AAFΦRpPRrFAAAQ)-miniPEG-K(NF) [compound 7]	1.7
cyclo(AAFϕRpPRRFAAAQ)-miniPEG-K(NF) [compound 8]	2.3
